Assay results published in ChEMBL document CHEMBL1149176, “(2R)-2-ethylchromane-2-carboxylic acids: discovery of novel PPARalpha/gamma dual agonists as antihyperglycemic and hypolipidemic agents” (J Med Chem, 2004).

Key:
[1] = molecular target: T1, Peroxisome proliferator-activated receptor gamma (Homo sapiens, UniProt P37231); test: In vitro binding affinity for human peroxisome proliferator activated receptor gamma using scintillation proximity assay (SPA)
T1 sequence (P37231 whole entry): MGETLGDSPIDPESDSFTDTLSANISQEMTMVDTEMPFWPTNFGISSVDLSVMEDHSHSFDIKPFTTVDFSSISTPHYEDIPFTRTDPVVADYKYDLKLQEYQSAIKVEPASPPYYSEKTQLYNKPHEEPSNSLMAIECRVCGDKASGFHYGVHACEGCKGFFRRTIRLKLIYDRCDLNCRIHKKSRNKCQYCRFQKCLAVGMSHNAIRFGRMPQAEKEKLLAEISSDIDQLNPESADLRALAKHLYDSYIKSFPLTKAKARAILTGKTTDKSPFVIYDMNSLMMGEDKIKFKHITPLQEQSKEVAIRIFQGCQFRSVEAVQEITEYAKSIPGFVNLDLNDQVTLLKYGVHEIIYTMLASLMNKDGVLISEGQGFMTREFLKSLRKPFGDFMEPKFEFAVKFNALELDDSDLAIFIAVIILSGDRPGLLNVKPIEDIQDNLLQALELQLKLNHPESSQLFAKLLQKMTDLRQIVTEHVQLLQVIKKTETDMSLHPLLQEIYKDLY

[2] = molecular target: T1, Peroxisome proliferator-activated receptor gamma
Description: In vitro potency of PPAR gene activation against human PPAR gamma receptor using chimeric Gal4-hPPAR transactivation assay (TA)

[3] = molecular target: T2, Peroxisome proliferator-activated receptor alpha (Homo sapiens, UniProt Q07869); test: In vitro potency of PPAR gene activation against human Peroxisome proliferator activated receptor alpha using chimeric Gal4-hPPAR transactivation assay (TA)
T2 sequence (Q07869 whole entry): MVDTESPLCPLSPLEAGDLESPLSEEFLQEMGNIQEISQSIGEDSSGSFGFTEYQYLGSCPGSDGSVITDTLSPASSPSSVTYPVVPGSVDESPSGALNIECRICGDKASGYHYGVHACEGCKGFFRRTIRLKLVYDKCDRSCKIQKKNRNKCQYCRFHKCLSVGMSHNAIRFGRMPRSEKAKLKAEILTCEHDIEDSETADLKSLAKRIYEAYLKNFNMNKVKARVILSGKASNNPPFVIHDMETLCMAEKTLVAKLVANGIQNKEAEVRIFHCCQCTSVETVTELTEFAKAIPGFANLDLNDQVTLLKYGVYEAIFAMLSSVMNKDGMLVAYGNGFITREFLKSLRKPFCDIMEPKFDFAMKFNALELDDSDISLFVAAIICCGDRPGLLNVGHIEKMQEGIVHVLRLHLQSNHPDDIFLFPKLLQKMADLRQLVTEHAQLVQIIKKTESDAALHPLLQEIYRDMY

[4] = molecular target: T3, Peroxisome proliferator-activated receptor delta (Homo sapiens, UniProt Q03181)
T3 sequence (Q03181 whole entry): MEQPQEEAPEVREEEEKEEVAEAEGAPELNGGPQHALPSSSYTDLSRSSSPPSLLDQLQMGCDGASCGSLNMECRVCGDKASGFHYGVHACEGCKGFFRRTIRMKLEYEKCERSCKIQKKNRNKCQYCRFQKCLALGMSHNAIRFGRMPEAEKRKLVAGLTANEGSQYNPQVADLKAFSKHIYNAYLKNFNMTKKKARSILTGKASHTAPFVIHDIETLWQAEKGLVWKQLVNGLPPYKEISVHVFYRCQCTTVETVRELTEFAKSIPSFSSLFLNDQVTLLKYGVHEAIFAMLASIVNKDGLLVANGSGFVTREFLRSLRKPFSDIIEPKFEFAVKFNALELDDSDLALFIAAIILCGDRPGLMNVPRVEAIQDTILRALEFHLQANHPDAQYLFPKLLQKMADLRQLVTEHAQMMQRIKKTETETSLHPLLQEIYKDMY

[5] = molecular target: T2, Peroxisome proliferator-activated receptor alpha
Description: In vitro binding affinity for human peroxisome proliferator activated receptor alpha using scintillation proximity assay (SPA)

[6] = molecular target: T2, Peroxisome proliferator-activated receptor alpha; test: In vitro transcriptional activation by human PPAR alpha Gal4 chimera; Not active
Cricetinae gen. sp. [7] = test: In vivo percent change in serum cholesterol in hamsters at 100 mg/kg; type: functional, Cricetulus griseus
Cricetinae gen. sp. [8] = test: In vivo serum cholesterol in hamsters at 100 mg/kg; type: functional, Cricetulus griseus
Canis familiaris [9] = test: In vivo percent change in serum cholesterol in dogs at 50 mg/kg; type: functional, Canis lupus familiaris
Cricetinae gen. sp. [10] = test: In vivo percent change in triglyceride in hamsters at 100 mg/kg; type: functional, Cricetulus griseus
[11] = molecular target: T1, Peroxisome proliferator-activated receptor gamma; remark: listed apart in the source
Description: In vitro binding affinity for human PPAR gamma receptor using scintillation proximity assay (SPA)

[12] = Dose-normalized area under curve in monkey (p.o.) at 2.0 mpk; type: ADME; conditions: cercopithecidae, in vivo, po, 2 mg/kg
[13] = molecular target: T4, Peroxisome proliferator-activated receptor gamma (Mus musculus, UniProt P37238); test: In vitro transcriptional activation by PPAR gamma
T4 sequence (P37238 whole entry): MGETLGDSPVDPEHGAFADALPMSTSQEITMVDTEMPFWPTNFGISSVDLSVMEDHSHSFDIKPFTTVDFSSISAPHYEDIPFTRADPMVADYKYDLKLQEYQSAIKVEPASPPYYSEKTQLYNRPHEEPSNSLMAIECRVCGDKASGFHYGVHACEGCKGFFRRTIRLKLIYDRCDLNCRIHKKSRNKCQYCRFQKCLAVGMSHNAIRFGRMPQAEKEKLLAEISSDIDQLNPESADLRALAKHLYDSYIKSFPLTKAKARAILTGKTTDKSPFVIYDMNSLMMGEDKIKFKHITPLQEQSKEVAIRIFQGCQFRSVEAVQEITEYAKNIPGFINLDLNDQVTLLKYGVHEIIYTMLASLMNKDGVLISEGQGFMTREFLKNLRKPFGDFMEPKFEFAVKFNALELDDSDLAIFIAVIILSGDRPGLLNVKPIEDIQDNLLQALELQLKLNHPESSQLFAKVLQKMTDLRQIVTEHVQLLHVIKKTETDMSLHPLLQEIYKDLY

Rattus norvegicus [14] = test: Lower clearance in rat (i.v.) at 0.5 mpk; type: ADME, organism-based; conditions: in vivo, iv, 0.5 mg/kg
Cricetinae gen. sp. [15] = test: In vivo percent change in triglyceride in hamsters at 3 mg/kg; type: functional, Cricetulus griseus
[16] = Lower clearance in monkey (i.v.) at 0.5 mpk; type: ADME, organism-based; conditions: cercopithecidae, in vivo, iv, 0.5 mg/kg
Cricetinae gen. sp. [17] = test: In vivo percent change in serum cholesterol in hamsters at 3 mg/kg; type: functional, Cricetulus griseus
[18] = Longer half-life in rat (i.v.) at 0.5 mpk; type: ADME, organism-based; conditions: in vivo, iv, 0.5 mg/kg
Cricetinae gen. sp. [19] = test: In vivo percent change in serum cholesterol in hamsters at 10 mg/kg; type: functional, Cricetulus griseus
Cricetinae gen. sp. [20] = test: In vivo serum cholesterol in hamsters at 10 mg/kg; type: functional, Cricetulus griseus
Cricetinae gen. sp. [21] = test: In vivo triglyceride in hamsters at 3 mg/kg; type: functional, Cricetulus griseus
Canis familiaris [22] = test: Dose-normalized area under curve in dog (p.o.) at 2.0 mpk; type: ADME, organism-based, Canis lupus familiaris; conditions: in vivo, po, 2 mg/kg
Cricetinae gen. sp. [23] = test: In vivo triglyceride in hamsters at 10 mg/kg; type: functional, Cricetulus griseus
Rattus norvegicus [24] = test: Dose-normalized area under curve in rat (i.v.) at 0.5 mpk; type: ADME, organism-based; conditions: in vivo, iv, 0.5 mg/kg
Canis familiaris [25] = test: In vivo percent change in serum cholesterol in dogs at 1 mg/kg; type: functional, Canis lupus familiaris
Canis familiaris [26] = test: In vivo percent change in serum cholesterol in dogs at 3 mg/kg; type: functional, Canis lupus familiaris
[27] = Longer half-life in monkey (i.v.) at 0.5 mpk; type: ADME, organism-based; conditions: cercopithecidae, in vivo, iv, 0.5 mg/kg
Canis familiaris [28] = test: Lower clearance in dog (i.v.) at 0.5 mpk; type: ADME, organism-based, Canis lupus familiaris; conditions: in vivo, iv, 0.5 mg/kg
Cricetinae gen. sp. [29] = test: In vivo percent change in triglyceride in hamsters at 10 mg/kg; type: functional, Cricetulus griseus
[30] = Bioavailability in dog (p.o.) at 2.0 mpk; type: ADME, organism-based, Canis lupus familiaris; conditions: in vivo, po, 2 mg/kg
Mesocricetus auratus = test: In vivo serum cholesterol in Golden Syrian hamsters at 3 mg/kg
[31] = Longer half-life in dog (i.v.) at 0.5 mpk; type: ADME, organism-based, Canis lupus familiaris; conditions: in vivo, iv, 0.5 mg/kg
[32] = Bioavailability in rat (dose 2.0 mg/kg p.o.); type: ADME, organism-based; conditions: in vivo, po
[33] = In vitro transcriptional activation by human PPAR gamma Gal4 chimera
[34] = Bioavailability in monkey (p.o.) at 2.0 mpk; type: ADME, organism-based; conditions: cercopithecidae, in vivo, po, 2 mg/kg
Rattus norvegicus [35] = test: Dose-normalized area under curve in rat (p.o.) at 2.0 mpk; type: ADME, organism-based; conditions: in vivo, po, 2 mg/kg
[36] = Longer half-life in rat (p.o.) at 2.0 mpk; type: ADME, organism-based; conditions: in vivo, po, 2 mg/kg

SMILES: CCCc1cc(Oc2ccccc2)ccc1OCCCCOc1ccc2c(c1)OC(C)(C(=O)O)CC2 (configuration not stated)
- IC50 [1]: 5100 nM
- EC50 [2]: 3600 nM
- EC50 [3]: 5200 nM
- IC50 [4]: > 50000 nM
- IC50 [5]: > 15000 nM

SMILES: CC[C@@]1(C(=O)O)CCc2ccc(OCCCOc3ccc(Oc4ccc(F)cc4)cc3Cl)cc2O1
- IC50 [4]: > 50000 nM

SMILES: CCCc1cc(Oc2ccccc2)ccc1OCCCOc1ccc2c(c1)CCC(C)(C(=O)O)O2 (configuration not stated)
- IC50 [1]: 1700 nM
- EC50 [2]: 6800 nM
- IC50 [4]: > 50000 nM
- IC50 [5]: 3300 nM
- EC50 [6]: Not Active

SMILES: CCCc1cc(Oc2ccccc2)ccc1OCCCOc1ccc2c(c1)CCC(C(=O)O)O2 (configuration not stated)
- IC50 [1]: 2900 nM
- EC50 [2]: 2800 nM
- IC50 [4]: > 15000 nM
- IC50 [5]: > 15000 nM
- EC50 [6]: Not Active

SMILES: CC(C)OC(=O)C(C)(C)Oc1ccc(C(=O)c2ccc(Cl)cc2)cc1 [FENOFIBRATE]
- Change (Cricetinae gen. sp. [7]): -38%
- Activity (Cricetinae gen. sp. [8]): 67 mg/dL
- Change (Canis familiaris [9]): -16.3%
- Change (Cricetinae gen. sp. [10]): -44%

SMILES: CCCc1cc(Oc2ccc(F)cc2)ccc1OCCCOc1ccc2c(c1)OC(CC)(C(=O)O)CC2 (configuration not stated)
- IC50 [1]: 1200 nM
- EC50 [2]: 750 nM
- EC50 [3]: 10 nM
- IC50 [4]: > 50000 nM
- IC50 [5]: 970 nM

SMILES: CCCc1cc(Oc2ccccc2)ccc1OCCCOc1ccc2c(c1)OC(CC)(C(=O)O)CC2 (configuration not stated)
- IC50 [1]: 440 nM
- EC50 [2]: 1000 nM
- EC50 [3]: 30 nM
- IC50 [4]: > 50000 nM
- IC50 [5]: 360 nM

SMILES: CCCc1cc(Oc2ccc(Cl)cc2)ccc1OCCCOc1ccc2c(c1)OC(CC)(C(=O)O)CC2 (configuration not stated)
- IC50 [1]: 1400 nM
- EC50 [2]: 670 nM
- EC50 [3]: 210 nM
- IC50 [4]: > 50000 nM
- IC50 [5]: 4000 nM

SMILES: CCCc1cc(Oc2ccc(OC)cc2)ccc1OCCCOc1ccc2c(c1)OC(CC)(C(=O)O)CC2 (configuration not stated)
- IC50 [1]: 630 nM
- EC50 [2]: 890 nM
- EC50 [3]: 4600 nM
- IC50 [4]: > 50000 nM
- IC50 [5]: > 15000 nM

SMILES: CCCc1cc(Oc2ccc(S(C)(=O)=O)cc2)ccc1OCCCOc1ccc2c(c1)OC(CC)(C(=O)O)CC2 (configuration not stated)
- EC50 [2]: 2800 nM
- IC50 [11]: 370 nM
- IC50 [4]: > 50000 nM
- IC50 [5]: > 15000 nM
- EC50 [6]: Not Active

SMILES: CC[C@]1(C(=O)O)CCc2ccc(OCCCOc3ccc(Oc4ccc(F)cc4)cc3Cl)cc2O1
- nAUC [12]: 1.7 µM·h
- EC50 [13]: 150 nM
- Clp (Rattus norvegicus [14]): 3.4 mL/min/kg
- Change (Cricetinae gen. sp. [15]): -27%
- Clp [16]: 8.6 mL/min/kg
- Change (Cricetinae gen. sp. [17]): -21%
- half-life [18]: 4.6 h
- Change (Cricetinae gen. sp. [19]): -40%
- Activity (Cricetinae gen. sp. [20]): 65 mg/dL
- Activity (Cricetinae gen. sp. [21]): 222 mg/dL
- nAUC (Canis familiaris [22]): 9.2 µM·h
- Activity (Cricetinae gen. sp. [23]): 159 mg/dL
- nAUC (Rattus norvegicus [24]): 10 µM·h
- Change (Canis familiaris [25]): -23.3%
- IC50 [4]: > 15000 nM
- Change (Canis familiaris [26]): -31.6%
- half-life [27]: 3.5 h
- Clp (Canis familiaris [28]): 3.5 mL/min/kg
- Change (Cricetinae gen. sp. [29]): -48%
- bioavailability [30]: 92%
- Activity (Mesocricetus auratus): 85 mg/dL
- half-life [31]: 10 h
- bioavailability [32]: 48%
- EC50 [33]: 140 nM
- bioavailability [34]: 43%
- nAUC (Rattus norvegicus [35]): 4.8 µM·h
- half-life [36]: 3.7 h
